Reference: patent US6365606B1, “6,5-fused aromatic ring systems having enhanced phosphodiesterase IV inhibitory activity” (Euro-Celtique, S.A., priority 1996, dated 2002)

Assays:
Format in all cases: biochemical
[1] = test system: Type IV PDE isolated from bovine tracheal smooth muscle; test: Type IV PDE activity, hydrolysis of [3H]-cyclic AMP; details: bovine tracheal smooth muscle enzyme; 0.2 μM cyclic AMP
Experimental: The Type IV PDE is isolated from bovine tracheal smooth muscle using a procedure similar to that previously described by Silver, P. J., et al.: Eur. J. Pharmacol. 150:85, 1988.(1). Eiiefly, smooth muscle from bovine trachea is minced and homogenized using a polytron in 10 volumes of an extraction buffer containing 10 mM Tris-acetate (pH 7.5), 2 mM magnesium chloride, 1 mM dithiothreitol and 2,000 units/ml of aprotinin. This and all subsequent procedures are performed at 0-4EC. The homogenate is sonicated and then centrifuged at 48,000×g for 30 minutes. The resulting supernatant is applied to a DEAE Trisacryl M column previously equilibrated with sodium acetate and dithiothreitol. After applications of the sample, the column is washed with sodium acetate/dithiothreitol, after which the different forms of PDE are eluted from the column using a linear Tris-HCl/NaCl gradient. Fractions containing Type IV PDE are collected, dialyzed and concentrated to 14% of the original volume. The concentrated fractions are diluted to 50% with ethylene glycol and stored at −20EC.
Enzyme activity is assessed by measuring the hydrolysis of [^3H]-cyclic AMP, as described by Thompson, W. J., et al.: Adv. Cyclic Nucleotide Res. 10:69, 1979. The cyclic AMP concentration used in this assay is 0.2 μM, which approximates to the Km value. Protein concentration is adjusted to ensure that no more than 15% of the available substrate is hydrolyzed during the incubation period.
All test compounds are dissolved in dimethyl sulfoxide (final concentration of 2.5%). This concentration of dimethyl sulfoxide inhibits enzyme activity by approximately 10%.
The compounds are tested over concentration range: 0.1, 1, 10, 100 uM (n=1), and IC50 determinations are made using 5 appropriate concentrations (n=2).

[2] = biological target: T1, Type III PDE isolated from human platelets (Homo sapiens, UniProt Q14432); test: Type III PDE activity, hydrolysis of [3H]-cyclic AMP; details: human platelet enzyme; 0.2 μM cyclic AMP
T1 construct: Fractions containing PDE III activity are pooled and dialyzed; from tissue; host or cells: human platelets (100,000 x g supernatant, DEAE-Trisacryl M fraction)
Experimental: After application of the sample, the column is washed with several bed volumes of buffer B, after which the different forms of PDE are eluted from the column using two successive linear NaCl gradients (0.05-0.15 M, 300 ml total; 0.15-0.40 M, 200 ml total). Five milliliter fractions are collected and assayed for cyclic AMP and cyclic GMP PDE activity.

[3] = biological target: T2, Type V PDE isolated from platelets (Homo sapiens, UniProt O76074); test: Type V PDE activity, hydrolysis of [3H]-cyclic GMP; details: platelet enzyme; 0.2 uM cyclic GMP
T2 construct: Fractions that contain PDE V are pooled and dialyzed overnight; from tissue; host or cells: platelets (supernatant, DEAE-Trisacryl M fraction)
Experimental: Briefly, 1-2 units of platelets are suspended in an equal volume of buffer A (20 mM Tris-HCl, pH 7.5, containing 2 mM magnesium acetate, 1 mM dithiothreitol, and 5 mM Na2EDTA) using a polytron. The proteinase inhibitor phenylmethylsulfonyl fluoride (PMSF) are also included in this buffer at a final concentration of 200 uM. […] The homogenate is then centrifuged at 100,000 rpm for 60 minutes. The supernatant is then removed and filtered through four layers of gauze and applied to a DEAE-Trisacryl M column. The column is washed with several bed volumes of buffer B (20 mM Tris-HCl, pH 7.5, containing 2 mM magnesium acetate, 1 mM diothiothreitol, and […] PMSF) and eluted by two successive linear NaCl gradients (0.05-0.15 M, 300 ml total; 0.15-0.40 M, 200 ml total). Five ml fractions are collected and assayed for cyclic AMP and cyclic GMP PDE activity. Fractions that contain PDE V are pooled and dialyzed overnight against 4 L of buffer C (20 mM Tris-HCl, pH 7.5, containing 2 mM magnesium acetate and proteinase inhibitors). […] PDE V can typically be retained for up to four weeks with little or no loss of activity.
The reference Type V PDE inhibitor zaprinast is evaluated with each assay.

T1 sequence (Q14432 whole entry): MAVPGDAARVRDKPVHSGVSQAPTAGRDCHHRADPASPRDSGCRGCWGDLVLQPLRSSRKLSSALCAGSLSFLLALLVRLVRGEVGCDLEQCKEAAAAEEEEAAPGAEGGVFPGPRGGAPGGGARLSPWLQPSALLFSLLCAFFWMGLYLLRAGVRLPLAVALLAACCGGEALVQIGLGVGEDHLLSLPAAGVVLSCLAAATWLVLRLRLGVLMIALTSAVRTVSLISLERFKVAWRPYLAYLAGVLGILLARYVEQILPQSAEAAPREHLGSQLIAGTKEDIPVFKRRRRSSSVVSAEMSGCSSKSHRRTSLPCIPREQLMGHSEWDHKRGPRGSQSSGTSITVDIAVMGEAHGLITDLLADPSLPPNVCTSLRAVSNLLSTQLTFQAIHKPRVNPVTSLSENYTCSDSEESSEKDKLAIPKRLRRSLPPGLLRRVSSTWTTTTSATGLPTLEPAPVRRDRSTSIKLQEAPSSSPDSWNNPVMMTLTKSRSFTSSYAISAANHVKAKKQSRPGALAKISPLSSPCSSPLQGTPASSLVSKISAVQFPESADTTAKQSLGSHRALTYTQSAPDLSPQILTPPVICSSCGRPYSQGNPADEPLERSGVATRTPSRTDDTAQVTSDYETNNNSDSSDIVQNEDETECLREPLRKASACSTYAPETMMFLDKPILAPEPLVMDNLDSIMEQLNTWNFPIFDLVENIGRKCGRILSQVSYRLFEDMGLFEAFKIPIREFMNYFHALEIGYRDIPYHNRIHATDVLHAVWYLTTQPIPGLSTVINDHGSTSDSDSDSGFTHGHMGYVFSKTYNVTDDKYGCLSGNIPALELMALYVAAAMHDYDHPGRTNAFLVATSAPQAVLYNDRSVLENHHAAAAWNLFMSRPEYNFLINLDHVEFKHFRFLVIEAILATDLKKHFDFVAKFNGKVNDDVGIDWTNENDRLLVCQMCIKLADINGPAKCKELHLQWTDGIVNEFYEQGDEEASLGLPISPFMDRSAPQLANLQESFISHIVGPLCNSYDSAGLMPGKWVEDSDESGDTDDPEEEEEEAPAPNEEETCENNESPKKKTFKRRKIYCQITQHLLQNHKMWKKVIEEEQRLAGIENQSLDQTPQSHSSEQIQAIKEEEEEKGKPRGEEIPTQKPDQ

| IC50 [1] | IC50 [2] | IC50 [3] | Structure (SMILES) |
| --- | --- | --- | --- |
| 13 nM | – | – | CC(C)(C)c1cc(Cc2nc3cc(Cl)cc(C#Cc4ccccn4)c3o2)cc(C(C)(C)C)c1O [Example 1, 5-chloro-2-(3,5-di-t-butyl-4-hydroxy-benzyl)-7-(2-(2-pyridyl)-ethynyl)-benzoxazole] |
| 700 nM | – | – | CC(C)(C)c1cc(Cc2nc3cccc(C#Cc4ccccn4)c3o2)cc(C(C)(C)C)c1O [Example 2] |
| 14 nM | – | – | CC(C)(C)c1cc(Cc2nc3cc(Cl)cc(C#Cc4nccs4)c3o2)cc(C(C)(C)C)c1O [Example 3, 5-chloro-2-(3,5-di-t-butyl-4-hydroxy-benzyl)-7-(2-(2-thiazolyl)-ethynyl)-benzoxazole] |
| 420 nM | > 300000 nM | 19500 nM | CC(C)(C)c1cc(Cc2nc3cc(Cl)cc(C#CCO)c3o2)cc(C(C)(C)C)c1O [Example 4, 3-(5-chloro-2-(4-hydroxy-3,5-bis((1,1-dimethyl)ethyl)benzyl)benzoxazol-7-yl)prop-2-yn-1-ol] |
| 3700 nM | – | – | COc1ccc(C2CNC(=O)C2)cc1OC1CCCC1 (centres unmarked) [Rolipram, reference compound] |
| 321000 nM | – | – | Cn1c(=O)c2[nH]cnc2n(C)c1=O [Theophylline, reference compound] |
